System: terminal sensory nerve fibers of rat vulva
Assay: reduction of nerve fiber density in rat vulva, PGP 9.5 immunostaining
Type: in vivo
Details: 33 μL, 1% (w/v) in DGME applied for 20 minutes, Day 7, statistical significance not established
Experimental: Sixty female retired breeder Sprague-Dawley rats were divided into 6 groups. On day 0, rats were anesthetized with isoflurane anesthetic gas and then LMX5® anesthetic cream was applied to the entire vulvar area of each rat at least 30 minutes. The test formulations were applied using a micropipette to dispense 33 μL of each formulation. The formulations applied were diethylene glycol monoethyl ether (DGME) alone; 0.01% capsaicin (w/v) in DGME; 0.1% capsaicin (w/v) in DGME; 1% resiniferatoxin (w/v) in DGME; 3% capsaicin (w/v) in 90% (v/v) DGME and 10% (v/v) DMSO, a 10% capsaicin (w/v) in DGME. The formulations were left on for 20 minutes with the exception of 10% capsaicin (w/v) in DGME which was left on for 5 minutes. The remaining formulation was removed using a cleansing gel (89.08% PEG 300, 1.0% Carbopol 1382™, 0.02% butylated hydroxyanisole, 0.01% disodium edentate, pH 6.5). […] The tissues were evaluated by a board certified veterinary pathologist for (1) any and all lesions, with particular attention to inflammation and any microvascular changes, and (2) the presence, absence and any abnormalities in the architecture of the terminal nerve sensory nerve fibers. For each specimen, nerve fiber functionality was determined by counting the number of nerve fibers observed in at least four microscopical fields (each circular microscopical field has a radius of 90 μm) and then averaged. […]

With `C=C(C)[C@]12C[C@@H](C)[C@@]34O[C@](Cc5ccccc5)(O[C@@H]1[C@@H]3C=C(COC(=O)Cc1ccc(O)c(OC)c1)C[C@]1(O)C(=O)C(C)=C[C@@H]41)O2` [resiniferatoxin] the “decrease in nerve fiber density” value was 28%.
